Molecular target: T1, Human recombinant PTP-1B (Homo sapiens, UniProt P18031)
T1 construct: Human recombinant PTP-1B, containing amino acids 1-321, fused to GST enzyme; GST (glutathione S-transferase)
T1 sequence (P18031 1-321): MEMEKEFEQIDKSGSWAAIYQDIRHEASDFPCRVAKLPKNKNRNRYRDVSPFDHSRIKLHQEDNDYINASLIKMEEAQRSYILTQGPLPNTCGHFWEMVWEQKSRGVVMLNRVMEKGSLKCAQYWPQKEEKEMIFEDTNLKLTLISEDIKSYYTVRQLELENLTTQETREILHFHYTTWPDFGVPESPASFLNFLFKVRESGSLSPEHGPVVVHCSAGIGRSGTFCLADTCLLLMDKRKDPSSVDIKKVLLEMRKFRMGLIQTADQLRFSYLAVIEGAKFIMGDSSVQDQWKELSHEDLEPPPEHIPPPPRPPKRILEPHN
Experiment: Assay for PTP-1B Activity (pNPP substrate)
Type: biochemical
Conditions: human recombinant PTP-1B (1-321) GST fusion, 2 mM pNPP, pH 7.4, 30° C., 20 min; read-out: Activity Code (IC50 range)
Description: The activity of the compounds as modulators of protein tyrosine phosphatase, including PTP-1B, may be measured in standard assays (see, e.g., Examples 41 and 42). Briefly, the assay described herein employs human recombinant PTP-1B and a pNPP substrate in a rescue assay.
Assay for PTP-1B Activity
Enzyme: Human recombinant PTP-1B, containing amino acids 1-321, fused to GST enzyme (glutathione S-transferase) purified by affinity chromatography (Huyer et al, 1997, J. Biol. Chem., 272, 843-852).
pNPP: p-Nitrophenyl Phosphate (Calbiochem)
Assay Buffer: 50 mM HEPES (pH 7.4), 100 mM NaCl, 2 mM EDTA, 3 mM DTT
(5×) pNPP substrate: 10 mM pNPP in assay buffer
Enzyme: 1 mg/ml PTP1B (1-321), dilute 1:200 in assay buffer
Assay buffer: 50 mM HEPES (pH 7.4), 100 mM NaCl, 2 mM EDTA, 3 mM DTT
Enzyme dilution buffer: 50 mM HEPES (pH 7.4), 100 mM NaCl, 2 mM EDTA, 3 mM DTT
Substrate 198 mM p-Nitrophenyl Phosphate (pNPP) store at 4° C.
The assay was carried out at 30° C. in 96 well plates. The reaction mixture in 60 ul contained 50 mM HEPES (pH 7.4), 100 mM NaCl, 2 mM EDTA, 3 mM DTT, and 2 mM p-Nitrophenyl Phosphate (pNPP). 5 ul of the test compound (inhibitor) dissolved in DMSO or DMSO alone for control was added to each well and the plate was mixed for 2 min. The reaction was initiated by adding 20 ul of diluted PTP1B (5 ng/ul in 50 mM HEPES (pH 7.4), 100 mM NaCl, 2 mM EDTA, 3 mM DTT). After 20 min at 30° C., the enzyme reaction was terminated by adding 100 ul of 2 M K2CO3 to each well. The phosphatase activity was detected by using Victor II plate reader (Wallac) with absorbance detection at 405 nm. All the assays were done at least in duplicate. The initial rate of pNP is plotted against the concentration of inhibitor.

Compound | IC50 [nM]
COC(=O)c1ccc(-c2cn(C)c(=O)n2Cc2ccc(C(F)(F)P(=O)(O)O)c(Br)c2)cc1 [Compound 38, 4-{3-[3-Bromo-4-(difluoro-phosphono-methyl)-benzyl]-1-methyl-2-oxo-2,3-dihydro-1H-imidazol-4-yl}-benzoic acid methyl ester] | 250 to 2500
O=c1n(Cc2ccccc2)cc(-c2ccsc2)n1Cc1ccc(C(F)(F)P(=O)(O)O)c(Br)c1 [Compound 39, {[4-(3-Benzyl-2-oxo-5-thiophen-3-yl-2,3-dihydro-imidazol-1-ylmethyl)-2-bromo-phenyl]-difluoro-methyl}-phosphonic acid] | 250 to 2500
CC(=O)Nc1cccc(Cn2cc(-c3ccc(S(C)(=O)=O)cc3)n(Cc3ccc(C(F)(F)P(=O)(O)O)c(Br)c3)c2=O)c1 [Compound 40, ({4-[3-(3-Acetylamino-benzyl)-5-(4-methanesulfonyl-phenyl)-2-oxo-2,3-dihydro-imidazol-1-ylmethyl]-2-bromo-phenyl}-difluoro-methyl)-phosphonic acid] | < 99
COC(=O)c1ccc(-c2c[nH]c(=O)n2Cc2ccc(C(F)(F)P(=O)(O)O)c(Br)c2)cc1 [Compound 41, 4-{3-[3-Bromo-4-(difluoro-phosphono-methyl)-benzyl]-2-oxo-2,3-dihydro-1H-imidazol-4-yl}-benzoic acid methyl ester] | 250 to 2500
Cn1cc(-c2ccc(C(=O)O)cc2)n(Cc2ccc(C(F)(F)P(=O)(O)O)c(Br)c2)c1=O [Compound 42, 4-{3-[3-Bromo-4-(difluoro-phosphono-methyl)-benzyl]-1-methyl-2-oxo-2,3-dihydro-1H-imidazol-4-yl}-benzoic acid] | 250 to 2500
O=c1n(Cc2ccc(C(F)(F)P(=O)(O)O)c(Br)c2)ccn1-c1ccccc1 [Compound 43, {[2-Bromo-4-(2-oxo-3-phenyl-2,3-dihydro-imidazol-1-ylmethyl)-phenyl]-difluoro-methyl}-phosphonic acid] | 2500 to 25000
O=c1n(Cc2ccccc2)cc(-c2cccs2)n1Cc1ccc(C(F)(F)P(=O)(O)O)c(Br)c1 [Compound 44, {[4-(3-Benzyl-2-oxo-5-thiophen-2-yl-2,3-dihydro-imidazol-1-ylmethyl)-2-bromo-phenyl]-difluoro-methyl}-phosphonic acid] | 250 to 2500
COC(=O)/C=C/c1ccc(-c2cn(C3CC3)c(=O)n2Cc2ccc(C(F)(F)P(=O)(O)O)c(Br)c2)cc1 [Compound 45, 3-(4-{3-[3-Bromo-4-(difluoro-phosphono-methyl)-benzyl]-1-cyclopropyl-2-oxo-2,3-dihydro-1H-imidazol-4-yl}-phenyl)-acrylic acid methyl ester] | < 99
O=C(O)/C=C/c1ccc(-c2cn(C3CC3)c(=O)n2Cc2ccc(C(F)(F)P(=O)(O)O)c(Br)c2)cc1 [Compound 46, 3-(4-{3-[3-Bromo-4-(difluoro-phosphono-methyl)-benzyl]-1-cyclopropyl-2-oxo-2,3-dihydro-1H-imidazol-4-yl}-phenyl)-acrylic acid] | < 99
CCn1cc(-c2ccc(C(=O)OC)cc2)n(Cc2ccc(C(F)(F)P(=O)(O)O)c(Br)c2)c1=O [Compound 47, 4-{3-[3-Bromo-4-(difluoro-phosphono-methyl)-benzyl]-1-ethyl-2-oxo-2,3-dihydro-1H-imidazol-4-yl}-benzoic acid methyl ester] | 100 to 249
CCCn1cc(-c2ccc(C(=O)OC)cc2)n(Cc2ccc(C(F)(F)P(=O)(O)O)c(Br)c2)c1=O [Compound 48, 4-{3-[3-Bromo-4-(difluoro-phosphono-methyl)-benzyl]-2-oxo-1-propyl-2,3-dihydro-1H-imidazol-4-yl}-benzoic acid methyl ester] | 100 to 249
O=c1n(Cc2ccccc2)cc(-c2ccc3c(c2)CCCC3)n1Cc1ccc(C(F)(F)P(=O)(O)O)c(Br)c1 [Compound 49, ({4-[3-Benzyl-2-oxo-5-(5,6,7,8-tetrahydro-naphthalen-2-yl)-2,3-dihydro-imidazol-1-ylmethyl]-2-bromo-phenyl}-difluoro-methyl)-phosphonic acid] | 250 to 2500
CS(=O)(=O)c1ccc(Cn2ccn(Cc3ccc(C(F)(F)P(=O)(O)O)c(Br)c3)c2=O)cc1 [Compound 50, ({2-Bromo-4-[3-(4-methanesulfonyl-benzyl)-2-oxo-2,3-dihydro-imidazol-1-ylmethyl]-phenyl}-difluoro-methyl)-phosphonic acid] | 250 to 2500
COC(=O)COc1ccc(-c2cn(C3CC3)c(=O)n2Cc2ccc(C(F)(F)P(=O)(O)O)c(Br)c2)cc1 [Compound 51, (4-{3-[3-Bromo-4-(difluoro-phosphono-methyl)-benzyl]-1-cyclopropyl-2-oxo-2,3-dihydro-1H-imidazol-4-yl}-phenoxy)-acetic acid methyl ester] | 100 to 249
O=C(O)COc1ccc(-c2cn(C3CC3)c(=O)n2Cc2ccc(C(F)(F)P(=O)(O)O)c(Br)c2)cc1 [Compound 52, (4-{3-[3-Bromo-4-(difluoro-phosphono-methyl)-benzyl]-1-cyclopropyl-2-oxo-2,3-dihydro-1H-imidazol-4-yl}-phenoxy)-acetic acid] | < 99
CC(C)(C)C(=O)OCOC(=O)c1ccc(-c2cn(Cc3ccccc3)c(=O)n2Cc2ccc(C(F)(F)P(=O)(O)OCOC(=O)C(C)(C)C)c(Br)c2)cc1 [Compound 53, 4-[1-Benzyl-3-(3-bromo-4-{[(2,2-dimethyl-propionyloxy-methoxy)-hydroxy-phosphoryl]-difluoro-methyl}-benzyl)-2-oxo-2,3-dihydro-1H-imidazol-4-yl]-benzoic acid 2,2-dimethyl-propionyloxymethyl ester] | 2500 to 25000
COC(=O)c1ccc(Cn2cc(-c3ccccc3)n(Cc3ccc(C(F)(F)P(=O)(O)O)c(Br)c3)c2=O)cc1 [Compound 54, 4-{3-[3-Bromo-4-(difluoro-phosphono-methyl)-benzyl]-2-oxo-4-phenyl-2,3-dihydro-imidazol-1-ylmethyl}-benzoic acid methyl ester] | 100 to 249
O=C(O)c1ccc(Cn2cc(-c3ccccc3)n(Cc3ccc(C(F)(F)P(=O)(O)O)c(Br)c3)c2=O)cc1 [Compound 55, 4-{3-[3-Bromo-4-(difluoro-phosphono-methyl)-benzyl]-2-oxo-4-phenyl-2,3-dihydro-imidazol-1-ylmethyl}-benzoic acid] | 250 to 2500
CC(C)(C)C(=O)OCOP(=O)(O)C(F)(F)c1ccc(Cn2c(-c3ccc(C#N)cc3)cn(Cc3ccccc3)c2=O)cc1Br [Compound 56, 2,2-Dimethyl-propionic acid ({4-[3-benzyl-5-(4-cyano-phenyl)-2-oxo-2,3-dihydro-imidazol-1-ylmethyl]-2-bromo-phenyl}-difluoro-methyl)-hydroxy-phosphinoyloxymethyl ester] | 2500 to 25000
CC(C)(C)C(=O)OCOP(=O)(OCOC(=O)C(C)(C)C)C(F)(F)c1ccc(Cn2c(-c3ccc(C#N)cc3)cn(Cc3ccccc3)c2=O)cc1Br [Compound 57, 2,2-Dimethyl-propionic acid ({4-[3-benzyl-5-(4-cyano-phenyl)-2-oxo-2,3-dihydro-imidazol-1-ylmethyl]-2-bromo-phenyl}-difluoro-methyl)-(2,2-dimethyl-propionyloxy-methoxy)-phosphinoyloxymethyl ester] | > 25000
CS(=O)(=O)c1ccc(Cn2cc(-c3ccccc3)n(Cc3ccc(C(F)(F)P(=O)(O)O)c(Br)c3)c2=O)cc1 [Compound 58, ({2-Bromo-4-[3-(4-methanesulfonyl-benzyl)-2-oxo-5-phenyl-2,3-dihydro-imidazol-1-ylmethyl]-phenyl}-difluoro-methyl)-phosphonic acid] | 250 to 2500
CC(C)OC(=O)OC(C)OC(=O)c1ccc(-c2cn(Cc3ccccc3)c(=O)n2Cc2ccc(C(F)(F)P(=O)(O)OC(C)OC(=O)OC(C)C)c(Br)c2)cc1 (stereo not shown) [Compound 59, 4-[1-Benzyl-3-(3-bromo-4-{difluoro-[hydroxy-(1-isopropoxy-carbonyloxy-ethoxy)-phosphoryl]-methyl}-benzyl)-2-oxo-2,3-dihydro-1H-imidazol-4-yl]-benzoic acid 1-isopropoxy-carbonyloxy-ethyl ester] | 2500 to 25000
